This is an account of results in patent US20040058868A1, “Methods for identification of compounds modulating insulin resistance” (priority 2002, published 2004).

Data set [1] relates to IRS-1 acetylation in MCF-7 cells. As to the kind of experiment: IRS-1 acetylation: immunoprecipitation with anti-IRS-1, western blot with anti-acetyl lysine antibodies. It counts as cell-based, human. As to conditions: MCF-7 cells treated with TSA. The protocol:
FIG. 2 illustrates immunoprecipitation of IRS-1 and detection of anti-acetyl-lysine. MCF-7 cells were treated as follows: lane 1: IGF-1 for 10 min; lane 2: IGF-1 for 30 min; lane 3: IGF-1 for 1 h; lane 4: IGF-1 for 6 h; lane 5: IGF-1 for 24 h; lane 6: PMA for 6 h; lane 7: PMA for 6 h and IGF-1 for 10 min; lane 8: PMA for 24 h; lane 9: PMA and TSA for 6 h; lane 10: TSA for 6 h; lane 11: control (vehicle).
(§1) To further validate the IRS-1/HDAC2 interaction, several mammalian cell lines were used. MCF-7 is a human breast adenocarcinoma cell line, HepG2 is a hepatocellular carcinoma cell line and L6 is a rat skeletal muscle cell line. The MCF-7 cell line was chosen since these cells have a high endogenous production of IRS-1. Cells were grown to confluency, treated with IGF-1 or PMA ([…]) for different lengths of time and then harvested in hypotonic cell lysis buffer (comprising 20 mM Hepes, pH 7.6, 20% glycerol, 10 mM NaCl, 1.5 mM MgCl2, 0.2 mM EDTA, 0.1% NP40, 25 mM NaF, 25 mM β-glycerophosphate, 1 mM DTT, 1 mM Na orthovanadate with protease inhibitors). All precleared fractions were matched for protein content and then immunoprecipitated with anti-IRS-1 antibody. […] A similar. experiment was performed the other way around, i.e. HDAC2 was immunoprecipitated from the cell extracts and the subsequent membrane was probed with anti-IRS-1 antibodies. […]
(In western blotting, separated proteins are transferred to a membrane and probed.)

The subject of data set [2] is IRS-1 tyrosine phosphorylation in MCF-7 cells. As to the kind of experiment: IRS-1 tyrosine phosphorylation: immunoprecipitation with anti-IRS-1, western blot with anti-phospho-tyrosine antibodies. In kind it is cell-based, human. As to conditions: insulin 10 min, FIG. 3. The protocol:
FIG. 3 illustrates immunoprecipitation of IRS-1 and detection of antiphosphotyrosine. MCF-7 cells were treated as follows: lane 1: insulin 10 min; lane 2: PMA & TSA for 4 h and insulin 10 min; lane 3: PMA for 4 h and insulin 10 min; lane 4: PMA & TSA for 4 h; lane 5: PMA for 4 h; lane 6: control (vehicle);
as §1

Data set [3] concerns IRS-1/HDAC2 interaction. As to the kind of experiment: Coimmunoprecipitation of IRS-1 and HDAC2 in L6 cells. As to conditions: stimulation with insulin. In kind it is cell-based, rat. The protocol: To further validate the IRS-1/HDAC2 interaction, several mammalian cell lines were used. MCF-7 is a human breast adenocarcinoma cell line, HepG2 is a hepatocellular carcinoma cell line and L6 is a rat skeletal muscle cell line. The MCF-7 cell line was chosen since these cells have a high endogenous production of IRS-1. Cells were grown to confluency, […] cell lysis buffer (comprising 20 mM Hepes, pH 7.6, 20% glycerol, 10 mM NaCl, 1.5 mM MgCl2, 0.2 mM EDTA, 0.1% NP40, 25 mM NaF, 25 mM β-glycerophosphate, 1 mM DTT, 1 mM Na orthovanadate with protease inhibitors). All precleared fractions were matched for protein content and then immunoprecipitated with anti-IRS-1 antibody. […] A similar. experiment was performed the other way around, i.e. HDAC2 was immunoprecipitated from the cell extracts and the subsequent membrane was probed with anti-IRS-1 antibodies.

Data set [4] relates to IRS-1/HDAC2 interaction. The data set can be described thus: Coimmunoprecipitation of IRS-1 and HDAC2 in HepG2 cells. In kind it is cell-based. As to conditions: stimulation with insulin. On the procedure:
To further validate the IRS-1/HDAC2 interaction, several mammalian cell lines were used. MCF-7 is a human breast adenocarcinoma cell line, HepG2 is a hepatocellular carcinoma cell line and L6 is a rat skeletal muscle cell line. The MCF-7 cell line was chosen since these cells have a high endogenous production of IRS-1. […] All precleared fractions were matched for protein content and then immunoprecipitated with anti-IRS-1 antibody. […] A similar. experiment was performed the other way around, i.e. HDAC2 was immunoprecipitated from the cell extracts and the subsequent membrane was probed with anti-IRS-1 antibodies.

Data set [5] concerns IRS-1/HDAC2 interaction. The data set can be described thus: Coimmunoprecipitation of IRS-1 and HDAC2 in MCF-7 cells. It counts as cell-based, human. As to conditions: MCF-7 cells treated with PMA; IP with anti-IRS-1 or anti-HDAC2. On the procedure: To further validate the IRS-1/HDAC2 interaction, several mammalian cell lines were used. MCF-7 is a human breast adenocarcinoma cell line, HepG2 is a hepatocellular carcinoma cell line and L6 is a rat skeletal muscle cell line. The MCF-7 cell line was chosen since these cells have a high endogenous production of IRS-1. Cells were grown to confluency, treated with IGF-1 or PMA ([…]) for different lengths of time and then harvested in hypotonic cell lysis buffer (comprising 20 mM Hepes, pH 7.6, 20% glycerol, 10 mM NaCl, 1.5 mM MgCl2, 0.2 mM EDTA, 0.1% NP40, 25 mM NaF, 25 mM β-glycerophosphate, 1 mM DTT, 1 mM Na orthovanadate with protease inhibitors). All precleared fractions were matched for protein content and then immunoprecipitated with anti-IRS-1 antibody. […] A similar. experiment was performed the other way around, i.e. HDAC2 was immunoprecipitated from the cell extracts and the subsequent membrane was probed with anti-IRS-1 antibodies.

For data set [6] the following is noted: clinical trials in humans, reference [26]; cited from earlier work.

`CC(/C=C/C(=O)NO)=C\[C@@H](C)C(=O)c1ccc(N(C)C)cc1` [TSA, Trichostatin A]: the “acetylation of IRS-1” value in data set [1] (FIG. 2) was “significantly pronounced”; in data set [1] (FIG. 2, listed as Trichostatin A) it was “enhanced”. Besides, in data set [2] (PMA and TSA simultaneously 4 h), the “reversal of PMA-induced insulin resistance (tyrosine phosphorylation of IRS-1)” value is listed as “insulin resistance can to a large extent be remedied”.

As for “insulin: insulin used to stimulate cells”, the “interaction between IRS-1 and HDAC2 (coimmunoprecipitation)” value in the data set on IRS-1/HDAC2 interaction [3] and with IRS-1/HDAC2 interaction [4] was “not influenced” each time.

`CCCCCCCCCCCCCC(=O)O[C@@H]1[C@@H](C)[C@@]2(O)[C@@H](C=C(CO)C[C@]3(O)C(=O)C(C)=C[C@@H]23)[C@@H]2C(C)(C)[C@]12OC(C)=O` [PMA, phorbol myristic acid]: the “insulin-stimulated tyrosine phosphorylation of IRS-1 (insulin resistance)” value in data set [2] (PMA 4 h) was “makes the cells insulin resistant”. Moreover, in the data set on IRS-1/HDAC2 interaction [5], the “interaction between IRS-1 and HDAC2 (coimmunoprecipitation)” value is “the interaction is PMA-driven”.

As to `O=C(CCCCCCC(=O)Nc1ccccc1)NO` [SAHA, suberoylanilide hydroxamic acid], the tolerability / toxicity entry in data set [6] is on record as “well-tolerated, are not toxic”.
